According to patent publication US10040838B2, “CRHR2 peptide agonists and uses thereof” (JANSSEN PHARMACEUTICA NV, priority 2008, dated 2018):
Residues, ends and D or L forms follow the SMILES beside them. No end group written: not given here. *: point of attachment. Succinimide(1-Et,3-yl) = CCN1C(=O)CC(*)C1=O

Columns and labels:
CRHR1 = molecular target: T1, CRHR1 (Homo sapiens, UniProt P34998); experiment: Radioligand binding CRHR1 assay, [125I]-(Tyr0)-sauvagine; design: expressed in transfected cells; host or cells: cell membranes
T1 sequence (P34998 24-415): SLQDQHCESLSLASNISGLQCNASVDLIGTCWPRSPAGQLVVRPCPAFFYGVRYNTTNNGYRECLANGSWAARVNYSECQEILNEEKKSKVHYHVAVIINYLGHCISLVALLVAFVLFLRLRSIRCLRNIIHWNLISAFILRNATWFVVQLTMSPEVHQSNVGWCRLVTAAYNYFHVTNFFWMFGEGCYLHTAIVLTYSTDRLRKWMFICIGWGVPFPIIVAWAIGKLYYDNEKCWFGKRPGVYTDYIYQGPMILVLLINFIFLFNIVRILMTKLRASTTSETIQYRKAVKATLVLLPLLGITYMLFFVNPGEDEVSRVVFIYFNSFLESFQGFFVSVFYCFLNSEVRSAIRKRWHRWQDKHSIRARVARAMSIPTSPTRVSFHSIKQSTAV
Experimental: The solution was then homogenized with a Polytron tissue grinder at a setting of 10 and 7×3 s (Brinkmann Instruments, Westbury, N.Y.). The homogenate was centrifuged at 4° Celsius at 800×g for 5 min with the pellet being discarded. […] All binding assays were conducted in 96-well Multiscreen GF/B filter plates (Millipore, Billericay, Mass., U.S.A.) that were pre-soaked in assay buffer with 0.3% PEI for 1 hour. […] The bound radioactivity was separated by filtration using a Multiscreen Resist manifold (Millipore Corp., Billerica, Mass., U.S.A). The filters were washed three times with ice-cold PBS at pH 7.5 and radioactivity retained on the filters was quantified by its liquid scintillation measured by a TopCount counter (Packard BioScience, Boston, Mass., U.S.A). All experiments were performed in triplicate.

human CRHR2 [1] = molecular target: T2, human CRHR2 (Homo sapiens, UniProt Q13324); experiment: cAMP assay in h-CRHR2 transfected SK-N-MC cells; assay type: cell-based; conditions: for Log DR: Table 13, h-SCP control pA50 minus test compound pA50 within same assay batch
T2 construct: expressed in transfected cells
T2 sequence (Q13324 1-411): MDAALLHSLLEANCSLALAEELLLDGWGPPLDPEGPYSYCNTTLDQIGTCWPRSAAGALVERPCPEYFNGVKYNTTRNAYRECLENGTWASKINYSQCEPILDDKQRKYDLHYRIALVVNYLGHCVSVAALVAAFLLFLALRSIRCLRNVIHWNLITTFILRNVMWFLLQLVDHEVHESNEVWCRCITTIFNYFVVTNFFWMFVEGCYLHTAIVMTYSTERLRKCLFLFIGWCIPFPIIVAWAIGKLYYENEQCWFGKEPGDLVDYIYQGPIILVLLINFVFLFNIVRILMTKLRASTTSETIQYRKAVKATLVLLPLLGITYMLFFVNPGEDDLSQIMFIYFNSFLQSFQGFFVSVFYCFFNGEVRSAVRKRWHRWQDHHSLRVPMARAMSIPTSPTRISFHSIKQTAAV
In short: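 SK-N-MC cells stably expressing human CRHR2 were stimulated with peptides (1 pM-10 μM) for 60 min at 37 °C with 10 μM IBMX, then lysed in 0.5 M HCl. cAMP was quantified by competitive [125I]-cAMP antibody flash-plate assay. Hill-equation fits gave A50/pA50; Log DR was taken relative to h-SCP control in the same batch.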

human CRHR2 [2] = molecular target: T2, human CRHR2; experiment: Radioligand binding, membranes of SK-N-MC cells transfected with human CRHR2, [125I]-anti-sauvagine-30
Experimental: The binding profile of h-SCP (SEQ ID NO:1) at CRHR2 was determined in radioligand binding studies in a membrane preparation of SK-N-MC cells stably transfected with human CRHR2 using [^125I]-anti-sauvagine-30 as the radiolabel. […] The solution was then homogenized with a Polytron tissue grinder at a setting of 10 and 7×3 s (Brinkmann Instruments, Westbury, N.Y.). The homogenate was centrifuged at 4° Celsius at 800×g for 5 min with the pellet being discarded. The supernatant was re-centrifuged at 26,892×g for 25 min at 4° Celsius with the final pellet being re-suspended in assay buffer. All binding assays were conducted in 96-well Multiscreen GF/B filter plates (Millipore, Billericay, Mass., U.S.A.) that were pre-soaked in assay buffer with 0.3% PEI for 1 hour. […] The bound radioactivity was separated by filtration using a Multiscreen Resist manifold (Millipore Corp., Billerica, Mass., U.S.A). The filters were washed three times with ice-cold PBS at pH 7.5 and radioactivity retained on the filters was quantified by its liquid scintillation measured by a TopCount counter (Packard BioScience, Boston, Mass., U.S.A). All experiments were performed in triplicate. Data from individual competition curves were expressed as the percentage of specific [^125I]-anti-sauvagine-30 or)[^125I]-([…])-sauvagine binding (B) within each experiment.

[3] = Table 15, slope of competition curve

In the case of CC[C@H](C)[C@H](NC(=O)[C@@H](NC(=O)[C@H](CC(=O)O)NC(=O)[C@H](CC(C)C)NC(=O)[C@H](CC(C)C)NC(=O)[C@H](CC(C)C)NC(=O)[C@H](CCCNC(=N)N)NC(=O)[C@H](CC(N)=O)NC(=O)[C@H](CC(N)=O)NC(=O)[C@H](C)NC(=O)[C@H](C)NC(=O)[C@H](CCC(N)=O)NC(=O)[C@H](CCC(N)=O)NC(=O)[C@H](CCCCN)NC(=O)[C@H](CCC(=O)O)NC(=O)[C@H](CCCCN)NC(=O)[C@H](CCC(=O)O)NC(=O)[C@H](CCC(N)=O)NC(=O)[C@H](CCCCN)NC(=O)[C@H](CCC(=O)O)NC(=O)[C@@H](NC(=O)[C@H](CCC(=O)O)NC(=O)[C@@H](NC(=O)[C@H](CCSC)NC(=O)[C@H](CCCCN)NC(=O)[C@H](CCCNC(=N)N)NC(=O)[C@H](CC(C)C)NC(=O)[C@H](CC(C)C)NC(=O)[C@H](Cc1c[nH]cn1)NC(=O)[C@H](N)Cc1ccccc1)[C@@H](C)CC)[C@@H](C)CC)[C@@H](C)O)C(N)=O [SEQ ID NO: 118, FHLLRKMIEIEKQEKEKQQAANNRLLLDTI-NH2], the Ki (CRHR1) is reported as 1550 nM, the “CRHR1 nH” value (CRHR1; [3]) is reported as 1.00 ± 0.49 and the Kb (human CRHR2 [1]) is reported as 15.1 nM. The Ki (human CRHR2 [2]) was 16.6 nM and the “CRHR2 nH” value (human CRHR2 [2]; [3]) was 1.15 ± 0.12.
With CC[C@H](C)[C@H](NC(=O)[C@H](CCC(N)=O)NC(=O)[C@H](C)NC(=O)[C@H](CCSC)NC(=O)[C@H](CC(C)C)NC(=O)[C@H](Cc1c[nH]cn1)NC(=O)[C@H](C)NC(=O)[C@H](CC(N)=O)NC(=O)[C@H](C)NC(=O)[C@H](CSC1CC(=O)N(CC)C1=O)NC(=O)[C@H](C)NC(=O)[C@H](CCC(N)=O)NC(=O)[C@H](C)NC(=O)[C@H](CCCNC(=N)N)NC(=O)[C@H](CC(C)C)NC(=O)[C@H](CC(N)=O)NC(=O)[C@H](CCCCN)NC(=O)[C@H](C)NC(=O)[C@H](CCCCN)NC(=O)[C@H](C)NC(=O)[C@@H](NC(=O)[C@H](CC(N)=O)NC(=O)[C@H](Cc1ccccc1)NC(=O)[C@H](CC(C)C)NC(=O)[C@H](CC(C)C)NC(=O)[C@H](CC(N)=O)NC(=O)[C@H](CCSC)NC(=O)[C@@H](NC(=O)[C@H](CC(N)=O)NC(=O)[C@@H](NC(=O)[C@@H]1CCCN1C(=O)[C@@H](NC(=O)[C@H](CC(=O)O)NC(=O)[C@H](CC(C)C)NC(=O)[C@H](CO)NC(=O)[C@H](CC(C)C)NC(=O)[C@@H](NC(=O)[C@H](Cc1ccccc1)NC(=O)[C@H](CCCCN)NC(=O)[C@@H](N)[C@@H](C)O)[C@@H](C)O)C(C)C)[C@@H](C)O)[C@@H](C)CC)[C@@H](C)CC)C(N)=O (some centres unmarked) [SEQ ID NO: 46, TKFTLSLDVPTNIMNLLFNIAKAKNLRAQAC(-NES)ANAH LMAQI-NH2] (H-TKFTLSLDVPTNIMNLLFNIAKAKNLRAQAC(Succinimide(1-Et,3-yl))ANAHLMAQI-NH2; N-terminus assumed) the “Log DR” value (human CRHR2 [1]) was 0.04.
In the case of “TKFTLSCDVPTNIMNLLFNIAKAKNLRAQAAANAHLMAQI-NH2 [SEQ ID NO: 8, TKFTLSCDVPTNIMNLLFNIAKAKNLRAQAAANAHLMAQI-NH2]”, the “Log DR” value (human CRHR2 [1]) is reported as 2.86.
“TKFTLSLDVPTNIMNLLFNIAKACNLRAQAAANAHLMAQI-NH2 [SEQ ID NO: 25, TKFTLSLDVPTNIMNLLFNIAKACNLRAQAAANAHLMAQI-NH2]” was tested, and the “Log DR” value (human CRHR2 [1]) was 0.35.
